Laboratory results reported in patent US9693997B2, “Antiviral compounds” (priority 2013, dated 2017).
Like-named read-outs stand apart in the source and are kept apart here.

Tests used:
[1] = system: Pseudotyped HCV GT1b particles (HCVpp), entry into Huh7-high CD81 cells; assay: microbe, parasite or virus in culture; format: cell-based, HCV GT1b Con1 strain
[2] = system: pseudotyped VSV G particles (VSVpp) in Huh7-high CD81 cells; assay: microbe, parasite or virus in culture; format: cell-based, vesicular stomatitis virus; details: Vesicular stomatitis virus, 72 h, read-out: VSVpp (EC50, μM)
[3] = Hepatitis C virus, GT1B, 72 h, read-out: HCVpp GT-1b (EC50, μM)

| SMILES | EC50 [1, 3] [µM] | EC50 [2] [µM] | EC50 ([1]; read-out: HCVpp GT-1b (EC50)) [µM] |
| --- | --- | --- | --- |
| CC(C)(CO)NS(=O)(=O)c1ccc(-c2c(Cl)cc(Nc3n[nH]c(N)n3)cc2C(F)(F)F)cc1 [Compound 226, 4′-(5-Amino-1H-[1,2,4]triazol-3-ylamino)-6′-chloro-2′-trifluoromethyl-biphenyl-4-sulfonic acid (2-hydroxy-1,1-dimethyl-ethyl)-amide] | 0.032 | 5.39 | – |
| COc1ccc(-c2c(Cl)cc(Nc3n[nH]c(N)n3)cc2C(F)(F)F)cc1S(=O)(=O)NC1CCN(C(C)=O)CC1 [Compound 227, 4′-(5-Amino-1H-[1,2,4]triazol-3-ylamino)-6′-chloro-4-methoxy-2′-trifluoromethyl-biphenyl-3-sulfonic acid (1-acetyl-piperidin-4-yl)-amide] | 0.042 | > 10 | – |
| CC(C)S(=O)(=O)c1ccc(-c2c(Cl)cc(Nc3n[nH]c(N)n3)cc2C(F)(F)F)cc1 [Compound 228, N*3*-[6-Chloro-4′-(propane-2-sulfonyl)-2-trifluoromethyl-biphenyl-4-yl]-1H-[1,2,4]triazole-3,5-diamine] | – | 7.52 | 0.042 |
| COc1ccc(-c2c(Cl)cc(Nc3n[nH]c(N)n3)cc2C(F)(F)F)cc1OC(C)C [Compound 229, N*3*-(6-Chloro-3′-isopropoxy-4′-methoxy-2-trifluoromethyl-biphenyl-4-yl)-1H-[1,2,4]triazole-3,5-diamine] | 0.072 | 6.47 | – |
| CC(C)(C)Oc1ccc(-c2c(Cl)cc(Nc3n[nH]c(N)n3)cc2C(F)(F)F)cc1 [Compound 230, N*3*-(4′-tert-Butoxy-6-chloro-2-trifluoromethyl-biphenyl-4-yl)-1H-[1,2,4]triazole-3,5-diamine] | 0.332 | > 10 | – |
| COc1ccc(-c2c(Cl)cc(Nc3n[nH]c(N)n3)cc2C(F)(F)F)cc1C(F)(F)F [Compound 231, N*3*-(6-Chloro-4′-methoxy-2,3′-bis-trifluoromethyl-biphenyl-4-yl)-1H-[1,2,4]triazole-3,5-diamine] | 0.41 | > 10 | – |
| Nc1nc(Nc2cc(Cl)c(-c3ccc(S(=O)(=O)N4CC(F)C4)cc3)c(C(F)(F)F)c2)n[nH]1 [Compound 233, N*3*-[6-Chloro-4′-(3-fluoro-azetidine-1-sulfonyl)-2-trifluoromethyl-biphenyl-4-yl]-1H-[1,2,4]triazole-3,5-diamine] | 0.051 | > 10 | – |
| COc1ccc(-c2c(Cl)cc(Nc3n[nH]c(N)n3)cc2C(F)(F)F)cc1S(=O)(=O)N(CC(F)(F)F)C1CCNCC1 [Compound 234, 4′-(5-Amino-1H-[1,2,4]triazol-3-ylamino)-6′-chloro-4-methoxy-2′-trifluoromethyl-biphenyl-3-sulfonic acid piperidin-4-yl-(2,2,2-trifluoro-ethyl)-amide; compound with trifluoro-acetic acid] | 0.005 | > 10 | – |
| Nc1nc(Nc2cc(Cl)c(-c3ccc(NC(=O)C4CCC(F)(F)CC4)cc3)c(C(F)(F)F)c2)n[nH]1 [Compound 235, 4,4-Difluorocyclohexanecarboxylic acid [4′-(5-amino-1H-[1,2,4]triazol-3-ylamino)-2′-chloro-6′-trifluoromethyl-biphenyl-4-yl]-amide] | 0.012 | > 10 | – |
| CC(C)(C)N1CC(OC(=O)Nc2ccc(-c3c(Cl)cc(Nc4n[nH]c(N)n4)cc3C(F)(F)F)cc2)C1 [Compound 236, [4′-(5-amino-1H-[1,2,4]triazol-3-ylamino)-2′-chloro-6′-trifluoromethyl-biphenyl-4-yl]-carbamic acid 1-tert-butyl-azetidin-3-yl ester] | 0.045 | > 10 | – |
| CCCOC(=O)Nc1ccc(-c2c(Cl)cc(Nc3n[nH]c(N)n3)cc2C(F)(F)F)cc1 [Compound 237, [4′-(5-amino-1H-[1,2,4]triazol-3-ylamino)-2′-chloro-6′-trifluoromethyl-biphenyl-4-yl]-carbamic acid propyl ester] | 0.058 | 3.67 | – |
| Nc1nc(Nc2cc(Cl)c(-c3ccc(NC(=O)C4CCS(=O)(=O)CC4)cc3)c(C(F)(F)F)c2)n[nH]1 [Compound 239] | 0.122 | > 10 | – |
| Nc1nc(Nc2cc(Cl)c(-c3ccc(NC(=O)CN4CCOCC4)cc3)c(C(F)(F)F)c2)n[nH]1 [Compound 241, [4′-(5-amino-1H-[1,2,4]triazol-3-ylamino)-2′-chloro-6′-trifluoromethyl-biphenyl-4-yl]-2-morpholin-4-yl-acetamide] | 0.123 | > 10 | – |
| CS(=O)(=O)Nc1cccc(-c2c(F)cc(Nc3nc(N)n[nH]3)cc2C(F)(F)F)c1 [Compound 243, N-[4′-(5-Amino-2H-[1,2,4]-triazol-3-ylamino)-6′-fluoro-2′-trifluoromethyl-biphenyl-3-yl]-methanesulfonamide] | 0.213 | > 10 | – |
| Nc1n[nH]c(Nc2cc(F)c(-c3cccc(F)c3)c(C(F)(F)F)c2)n1 [Compound 244] | 0.689 | 33.4 | – |
| Nc1n[nH]c(Nc2cc(F)c(-c3ccc(F)cc3)c(C(F)(F)F)c2)n1 [Compound 245, N^5-[6,4′-Difluoro-2-trifluoromethylbiphenyl-4-yl]-1H-[1,2,4]-triazole-3,5-diamine] | 1.47 | 17.1 | – |
| Nc1n[nH]c(Nc2cc(F)c(-c3ccc(C(F)(F)F)cc3)c(C(F)(F)F)c2)n1 [Compound 246, N^5-[6-Fluoro-2,4′-bis-trifluoromethylbiphenyl-4-yl]-1H-[1,2,4]-triazole-3,5-diamine] | 3.54 | 37.9 | – |

| SMILES | EC50 [1, 3] [µM] | EC50 [2] [µM] | EC50 ([1]; read-out: HCVpp GT-1b (EC50)) [µM] |
| --- | --- | --- | --- |
| Cc1ccc(-c2c(F)cc(Nc3nc(N)n[nH]3)cc2C(F)(F)F)cc1 [Compound 247, N^5-[6-Fluoro-4′-methyl-2-trifluoromethylbiphenyl-4-yl]-1H-[1,2,4]-triazole-3,5-diamine] | 1.7 | 10.7 | – |
| CNC(=O)c1cccc(-c2c(F)cc(Nc3nc(N)n[nH]3)cc2C(F)(F)F)c1 [Compound 248, 4′-(5-Amino-2H-[1,2,4]-triazol-3-ylamino)-6′-fluoro-2′-trifluoromethyl-biphenyl-43-carboxylic acid methylamide] | 1.02 | > 10 | – |
| Nc1n[nH]c(Nc2cc(F)c(-c3ccc4ccccc4c3)c(C(F)(F)F)c2)n1 [Compound 249, N^5-(3-Fluoro-4-naphthalen-2-yl-5-trifluoromethylphenyl)-1H-[1,2,4]-triazole-3,5-diamine] | 0.991 | 17.2 | – |
| Nc1nc(Nc2cc(Cl)c(-c3ccc(NC(=O)C4CCC(F)(F)CC4)cc3)c(Cl)c2)n[nH]1 [Compound 250, 4,4-Difluorocyclohexanecarboxylic acid [4′-(5-amino-1H-[1,2,4]triazol-3-ylamino)-2′,6′-dichloro-biphenyl-4-yl]-amide] | 0.013 | 14 | – |
| CC(C)C(=O)Nc1ccc(-c2c(Cl)cc(Nc3n[nH]c(N)n3)cc2Cl)cc1 [Compound 251, N-[4′-(5-amino-1H-[1,2,4]triazol-3-ylamino)-2′,6′-dichloro-biphenyl-4-yl]-isobutyramide] | 0.041 | 32.5 | – |
| CC(C)C(=O)Nc1cccc(-c2c(Cl)cc(Nc3n[nH]c(N)n3)cc2Cl)c1 [Compound 252, N-[4′-(5-amino-1H-[1,2,4]triazol-3-ylamino)-2′,6′-dichloro-biphenyl-3-yl]-isobutyramide] | 0.067 | > 10 | – |
| Nc1nc(Nc2cc(Cl)c(-c3ccc(S(N)(=O)=O)cc3)c(Cl)c2)n[nH]1 [Compound 253] | 0.026 | 0.6 | – |
| Nc1nc(Nc2cc(Cl)c(-c3ccc4[nH]c(=O)[nH]c4c3)c(Cl)c2)n[nH]1 [Compound 255] | 0.42 | > 10 | – |
| Nc1nc(Nc2cc(Cl)c(-c3ccc4c(c3)NC(=O)C4)c(Cl)c2)n[nH]1 [Compound 256] | 0.594 | 8.69 | – |
| Nc1nc(Nc2cc(Cl)c(-c3ccc4[nH]ncc4c3)c(Cl)c2)n[nH]1 [Compound 257, N-3-[3′,5′-dichlorophenyl-4′-(1H-indazol-5-yl)-phenyl]-1H-[1,2,4]triazole-3,5-diamine] | 0.343 | 2.73 | – |
| Nc1nc(Nc2ccc(-c3c(Cl)cccc3Cl)cc2)n[nH]1 [Compound 258] | 20.2 | 26.2 | – |
| Nc1n[nH]c(Nc2cc(Cl)c(-c3ccc(OC4CCCNC4)cc3)c(Cl)c2)n1 (centres unmarked) [Compound 259] | 0.089 | 4.27 | – |
| CC(C)(C)OC(=O)N1CC(COc2ccc(-c3c(Cl)cc(Nc4n[nH]c(N)n4)cc3Cl)cc2)C1 [Compound 260, 3-[4′-(5-Amino-1H-[1,2,4]triazol-3-ylamino)-2′,6′-dichloro-biphenyl-4-yloxymethyl]-azetidine-1-carboxylic acid tert-butyl ester] | 0.022 | 17.5 | – |
| CN(CCOc1ccc(-c2c(Cl)cc(Nc3n[nH]c(N)n3)cc2Cl)cc1)C(=O)OC(C)(C)C [Compound 261, {2-[4′-(5-Amino-1H-[1,2,4]triazol-3-ylamino)-2′,6′-dichloro-biphenyl-4-yloxy]-ethyl}-methyl-carbamic acid tert-butyl ester] | 0.033 | 4.26 | – |
| Nc1nc(Nc2cc(Cl)c(-c3ccc(OC4CCNCC4)cc3)c(Cl)c2)n[nH]1 [Compound 262, N*3*-[2,6-Dichloro-4′-(piperidin-4-yloxy)-biphenyl-4-yl]-1H-[1,2,4]triazole-3,5-diamine] | 0.05 | 4.87 | – |
| CNCCOc1ccc(-c2c(Cl)cc(Nc3n[nH]c(N)n3)cc2Cl)cc1 [Compound 263, N*3*-[2,6-Dichloro-4′-(2-methylamino-ethoxy)-biphenyl-4-yl]-1H-[1,2,4]triazole-3,5-diamine] | 0.059 | 3.75 | – |
| Nc1nc(Nc2cc(Cl)c(-c3ccc(OCCC4CCCN4)cc3)c(Cl)c2)n[nH]1 (centres unmarked) [Compound 264, N*3*-[2,6-Dichloro-4′-(2-pyrrolidin-2-yl-ethoxy)-biphenyl-4-yl]-1H-[1,2,4]triazole-3,5-diamine] | 0.048 | 6.5 | – |
